Measured values from patent US9670217B2, “Process for preparing chlorins and their pharmaceutical uses” (UNIVERSIDADE DE COIMBRA, priority 2008, dated 2017).

How the values were obtained:
[1] = Singlet oxygen quantum yield and lifetime (1270 nm phosphorescence); assay type: physicochemical; conditions: in aqueous solution
[2] = tested on: SKMEL 188 (human melanoma); assay: Cell photosensitization, filtered halogen lamp, MTT; assay type: cell-based; conditions: [Luzitin-Cl-c] = 20 μM
Experimental: (§1) Irradiation in in vitro experiments was performed using either a halogen lamp or a laser source. In the first case, a 500 W halogen lamp was placed 50 cm from the irradiated plate to insure a homogeneous irradiation. A cooled water filter (d=35 mm) and a 600 nm cut off filter were placed between the lamp and samples. The fluence rate reaching samples was 3 mW/cm^2. The emission spectrum of the halogen lamp was recorded using a spectroradiometer IL2000 (Spectrocube), FIG. 1. In the second case, three Lynx external cavity diode lasers TEC 500 powered by PilotPC 500 Laser Controllers (Sacher Lasertechnik, Marburg, Germany) were employed. The laser energies were stable at 40 mW for the 748 nm laser, 10 mW for the 649 laser and 10 mW for the 633 laser. The laser energies were regularly measured with a Coherent LaserCheck. In some in vitro experiments, the laser light was focused on an optical fiber through a collimator in microbench, and delivered to the cells. This system reduced the 748 nm laser light to 30 mW.
The cell lines employed in halogen lamp irradiation were the MCF7 (human breast carcinoma), SKMEL 188 (human melanoma) and S91/I3 (mouse melanoma) cells. They were used both for cytotoxicity and photocytotoxicity experiments. MCF7 cells were grown supplemented with 10% fetal calf (FBS) serum, 25 units/ml of penicillin, and 25 μg/ml of streptomycin. Human melanoma cells SKMEL-188 were grown in F10 medium supplemented with 10% fetal calf serum (FCS), 100 units/ml of penicillin, and 100 μg/ml of streptomycin. I3 subline of Cloudman S91 melanoma cells were cultured in RPMI 1640 medium supplemented with 100 units/ml of penicillin, 100 μg/ml streptomycin and 5% fetal calf serum (FCS) (Gibco BRL). […]
Cytotoxicity. Cell metabolic efficiency and viability were determined by the uptake and reduction of 3-(4,5-dimethylthiazol-2-yl)-2,5-diphenyl tetrazolium bromide (MTT) to an insoluble formazan dye by cellular microsomal enzymes. […] The 96-well culture plate was shaken for 0.5 min at room temperature and immediately read for optical density at 560 nm using an ELISA reader (GENios Plus; Tecan Trading AG, Switzerland). The cell survival was expressed by the absorbance changes of the formazan salt, and survival rate was given as the percent ratio of viable treated cells vs. the number of viable untreated cells. Number of cells was determined from linear regression of a calibration curve.
Cell photosensitization. […] The values were obtained from three independent experiments and expressed as percent of cell survival with reference to control cells, which were manipulated in the same manner but without incubation with photosensitizer and without illumination.

[3] = Absorption spectra (λmax, molar absorption coefficient); assay type: physicochemical; conditions: in aqueous solution
Experimental: Absorption spectra were recorded on a Shimadzu UV-2100 spectrophotometer or with a Carry 50 Biospectrophotometer (Varian, Mulgrave, USA). Fluorescence spectra were measured with a Spex Fluorolog 3 spectrophotometer, with correction for the wavelength dependence system (RCA C31034 photomultiplier), or with a PerkinElmer LS 50 spectrofluorimeter. Transient absorption spectra were measured with an Applied Photophysics LKS 60 nanosecond laser flash photolysis kinetic spectrometer, using the third harmonic of a Spectra-Physics Quanta Ray GCR 130-01 Nd/YAG laser for excitation, a Hamamatsu 1P28 photomultiplier and a Hewlett-Packard Infinium oscilloscope (1 GS/s). Flash photolysis measurements were made in the presence of air and in argon saturated solutions. Photoacoustic calorimetry employed the same Nd/YAG laser, a home-made front-face photoacoustic cell with a 2.25 MHz Panametrics transducer (model 5676) and a Tektronix DSA 601 transient recorder. Room-temperature singlet-oxygen phosphorescence was measured at 1270 nm with a Hamamatsu R5509-42 photomultiplier, cooled to 193 K in a liquid nitrogen chamber (Products for Research model PC176TSCE005), following laser excitation of aerated solutions at 355 nm, using an adapted Applied Photophysics spectrometer. Singlet oxygen emission at 1270 nm was also monitored with a liquid nitrogen-cooled germanium detector (North Coast) coupled to a Tectronix Digitizing scope (TDS 520B), following sample excitation with 5 ns laser pulses of the third harmonic (355 nm) generated by a Q-switched Nd:YAG laser (Continuum Surelite II).
(§2) This is indicative of little aggregation between the molecules, which exist mostly as monomers at these concentrations in the solvents studied. Table 1 presents typical red and infrared molar absorption coefficients (εmax) and wavelength maxima. The same table also presents representative fluorescence quantum yields (ΦF) of Luzitins. The fluorescence quantum yields decrease of these molecules decrease in the presence of chlorine substituents, a fingerprint of the heavy atom effect expected for such molecules.

[4] = tested on: MCF7 (human breast carcinoma); assay: Cell photosensitization, filtered halogen lamp, MTT; assay type: cell-based; conditions: [Luzitin-Cl-c] = 20 μM, filtered halogen lamp
Experimental: as §1
(§3) The cell lines employed in halogen lamp irradiation were the MCF7 (human breast carcinoma), SKMEL 188 (human melanoma) and S91/I3 (mouse melanoma) cells. They were used both for cytotoxicity and photocytotoxicity experiments. MCF7 cells were grown supplemented with 10% fetal calf (FBS) serum, 25 units/ml of penicillin, and 25 μg/ml of streptomycin. Human melanoma cells SKMEL-188 were grown in F10 medium supplemented with 10% fetal calf serum (FCS), 100 units/ml of penicillin, and 100 μg/ml of streptomycin. I3 subline of Cloudman S91 melanoma cells were cultured in RPMI 1640 medium supplemented with 100 units/ml of penicillin, 100 μg/ml streptomycin and 5% fetal calf serum (FCS) (Gibco BRL). All cell lines were cultivated as monolayer in Petri dishes of 60 mm diameter and incubated at 37° C. in a humid atmosphere containing 5% CO2.
(§4) Cytotoxicity. Cell metabolic efficiency and viability were determined by the uptake and reduction of 3-(4,5-dimethylthiazol-2-yl)-2,5-diphenyl tetrazolium bromide (MTT) to an insoluble formazan dye by cellular microsomal enzymes. The cell lines were grown in RPMI medium with 10% fetal calf serum, penicillin and streptomycin. Cells were maintained in 5% CO2, 95% air and 100% humidity. For determining cytotoxicity, these cells were plated in 96-well plates at a density of 1×10^4 cells well in complete media. After 24 h, the cells were incubated with photosensitizers at different concentrations (0.25 up to 50 μM) for 18 hours at 37° C. The cells were then washed twice with PBS and incubated in growth medium at 37° C. for 24 h. Next, the medium was replaced by 100 μl of fresh medium and 20 μl of MTT, and the cells were incubated with MTT for 3 h, with a final concentration of 0.5 mg/ml. Then the culture medium was replaced with DMSO-methanol solution (1:1) to dissolve the blue formazan crystals. The 96-well culture plate was shaken for 0.5 min at room temperature and immediately read for optical density at 560 nm using an ELISA reader (GENios Plus; Tecan Trading AG, Switzerland). The cell survival was expressed by the absorbance changes of the formazan salt, and survival rate was given as the percent ratio of viable treated cells vs. the number of viable untreated cells. Number of cells was determined from linear regression of a calibration curve.
(§5) Cell photosensitization. SKMEL 188, S91 and MCF7 cells were prepared as described above. […] The cells were incubated for 12 h at 37° C. and then irradiated at a 0.53 mW cm^2 fluence rate and in doses ranging from 0.1 to 0.64 J cm^2. We recall that photosensitizer uses only ca. ⅕ of the available fluence rate of the filtered halogen lamp. The MTT test was performed 24 h after irradiation. The values were obtained from three independent experiments and expressed as percent of cell survival with reference to control cells, which were manipulated in the same manner but without incubation with photosensitizer and without illumination. […]

S91 (mouse melanoma) = assay: as above; assay type: cell-based; conditions: [Luzitin-Cl-c] = 20 μM
Experimental: as §1, §3, §4, §5

[5] = Fluorescence quantum yield; assay type: physicochemical; conditions: in aqueous solution
Experimental: The absorptions of both reference and sample solutions were matched at ca 0.2 at the excitation wavelength of 515.5 nm, and the solutions were diluted by a factor 10 before collecting the fluorescence. The fluorescence quantum yield was obtained from the ratio of the fluorescence bands of the sample vs the reference, multiplied by the fluorescence quantum yield of the reference, 0.012 according to [12], after correction for the difference of refractive indexes of ethanol and toluene.
as §2

Which results are given for `O=S(=O)(O)c1ccc(Cl)c(-c2c3nc(c(-c4cc(S(=O)(=O)O)ccc4Cl)c4ccc([nH]4)c(-c4cc(S(=O)(=O)O)ccc4Cl)c4nc(c(-c5cc(S(=O)(=O)O)ccc5Cl)c5ccc2[nH]5)CC4)C=C3)c1` [Luzitin-Cl-c, 5,10,15,20-tetrakis(2-chloro-5-sulfonylphenyl)chlorin]?
ΦΔ (singlet oxygen quantum yield) [1]: 0.69; LD50 (light dose to kill 50% of the cells) [2]: 0.26 J/cm^2; LD90 (light dose to kill 90% of the cells) [2]: 0.46 J/cm^2; εmax [3]: 7,000 M^−1 cm^−1; λmax [3]: 650 nm; LD50 (light dose to kill 50% of the cells) [4]: 0.3 J/cm^2; LD90 (light dose to kill 90% of the cells) [4]: 0.7 J/cm^2; LD50 (light dose to kill 50% of the cells) (S91 (mouse melanoma)): 0.13 J/cm^2; LD90 (light dose to kill 90% of the cells) (S91 (mouse melanoma)): 0.26 J/cm^2; ΦF (fluorescence quantum yield) [5]: 0.039
